Series [1] relates to Drosophila wild-type larvae. Briefly: Antibiotic toxicity test, wild-type larvae fed antibiotic-supplemented diet. It counts as in vivo, Drosophila melanogaster. The conditions noted are these: for first instar death: larvae fed antibiotic-supplemented diet at around 1 mg/ml, n=10,000; for concentration at which antibiotic was highly toxic: wild-type larvae fed increasing amounts in diet. The procedure: As proof of principle, an embodiment of this system was developed for the fruit fly Drosophila melanogaster. As an initial test of antibiotic toxicity, Drosophila wild-type larvae were separately fed increasing amounts of either G418 or puromycin. Both antibiotics were highly toxic around 1 mg/ml such that when larvae were fed antibiotic-supplemented diet at this concentration, 100% first instar death was observed (n=10,000). Thus, these two antibiotics can be used as selection molecules in this system.

For series [2], the system named is Opie2-tra-neo expressing flies. Briefly: Sex selection of Opie2-tra-neo flies on G418 diet. It is filed as in vivo, Drosophila melanogaster. The conditions noted are these: diet with increasing concentrations of G418; at ~5 mg/ml; n=2,000. An excerpt:
(§1) The possibility of utilizing the endogenous sex determination machinery to promote sex-specific antibiotic resistance-based selection was next tested. Sex-specific introns dsx and tra were incorporated into the coding frames of the antibiotic resistance genes pac and neo, respectively, and two types of flies were generated, one type expressing Opie2-tra-neo and another type expressing Opie2-dsx-pac. The dsx intron can be excised by splicing only in males and the tra intron can be excised by splicing only in females. This precise sex-specific splicing of these two introns is dictated by the sex determination machinery of the fly. […] The Opie2-tra-neo expressing flies were fed diet containing increasing concentrations of G418 resulting in 100% female progeny at ˜5 mg/ml (n=2,000). The Opie2-dsx-pac expressing flies were fed diet containing increasing concentrations of puromycin resulting in 100% male progeny at ˜2 mg/ml (n=500).

The test system of series [3] is genetically engineered insects containing both antibiotic resistance markers. Nature of the series: Sex selection of flies carrying combined vector (Opie2-tra-neo and Opie2-dsx-pac). It is filed as in vivo, Drosophila.
Excerpt: The expanded insect population containing both males and females was transferred to a diet supplemented with puromycin.
The test system of series [4] is Opie2-dsx-pac expressing flies. Briefly: Sex selection of Opie2-dsx-pac flies on puromycin diet. It is filed as in vivo, Drosophila melanogaster. The conditions noted are these: diet with increasing concentrations of puromycin; at ~2 mg/ml; n=500.
Excerpt: as §1

For series [5], the system named is flies expressing Opie2-tra-pac. Nature of the series: Sex selection of Opie2-tra-pac flies on puromycin diet. It is filed as in vivo, Drosophila melanogaster. The conditions noted are these: larvae fed diet with increasing concentrations of puromycin; n=500. An excerpt:
Thus, the sex specific introns can be interchangeably used with either antibiotic resistance genes to select for either males or females.

Series [6] has as its system transgenic flies expressing the pac gene. Briefly: Antibiotic diet fed to transgenic flies expressing pac gene. It is filed as in vivo, Drosophila. The conditions noted are these: diet with increasing concentrations of puromycin; pac under Opie2 promoter. An excerpt:
To determine if the toxicity of puromycin and neomycin could be negated, antibiotic resistance genes pac and neo were used. Two types of transgenic flies were generated each expressing one type of antibiotic resistance gene under the control of the promoter Opie2. One type of transgenic fly expressed the pac gene and the other expressed the neo gene. Transgenic flies were fed a diet supplemented with increasing concentrations of either puromycin or G418, respectively. […] Additionally, these transgenic flies were quite healthy with high fitness. Thus, the pac and neo genes could be used to counter the toxicity of […], respectively.

The next series has as its system insects. The conditions noted are these: tetracycline in diet; Zeh et al., 2012; cited from earlier work.

Structures are written as SMILES.

On to `CN[C@@H]1[C@@H](O)[C@@H](O[C@@H]2[C@@H](O)[C@H](O[C@H]3O[C@H]([C@@H](C)O)[C@@H](O)[C@H](O)[C@H]3N)[C@@H](N)C[C@H]2N)OC[C@]1(C)O` [G418], for which, in series [1], the first instar death was found to be 100% and the “concentration at which antibiotic was highly toxic” value is reported as “around 1 mg/ml”. The female progeny in series [2] is listed as 100%. Further, in series [3] (diet supplemented with increasing concentrations of G418 (FIG. 3)), the females selected came out at 100%.

On to `COc1ccc(C[C@H](N)C(=O)N[C@H]2[C@@H](O)[C@H](n3cnc4c(N(C)C)ncnc43)O[C@@H]2CO)cc1` [puromycin], for which, in series [1], the first instar death is on record as 100% and the “concentration at which antibiotic was highly toxic” value is “around 1 mg/ml”. The male progeny in series [4] worked out at 100%. In addition, the female progeny in series [5] came to 100%. The males selected in series [3] (diet supplemented with increasing concentrations of puromycin (FIG. 2)) is 100%. The “sex-selective killing of progeny” value in series [3] (puromycin-supplemented diet, first instar larval stage) is listed as “female progeny were selectively killed”. Also, the “toxicity of antibiotic in resistance-gene flies” value in series [6] is “negate the toxicity”.

`CN(C)[C@@H]1C(O)=C(C(N)=O)C(=O)[C@@]2(O)C(O)=C3C(=O)c4c(O)cccc4[C@@](C)(O)[C@H]3C[C@@H]12` [tetracycline]: the “side effect on insects (fitness)” value in the series with insects was “large fitness cost”.

(Values after US20150237838A1, “REGULATION OF INSECT POPULATIONS” (CALIFORNIA INSTITUTE OF TECHNOLOGY, priority 2014, published 2015).)
